Laboratory results reported in PMC5458547, “Discovery of first-in-class reversible dual small molecule inhibitors against G9a and DNMTs in hematological malignancies” (Nature Communications, 2017).
Where “and” joins values, the source holds several entries; their conditions need not be identical. Identical values can stand only once.

How the values were obtained:
BAZ2B = target: T1, BAZ2B (Homo sapiens, UniProt Q9UIF8); test: Epigenetics selectivity panel (BPS Bioscience); type: binding
T1 construct: purchased DiscoverX KINOMEscan (kinases); BPS Bioscience (epigenetic targets)

KASUMI-1 = test: Cell proliferation assay (MTS); type: cell-based; settings: Homo sapiens, AML, 48 h
MY = test: Cell proliferation assay (MTS); type: cell-based; settings: Homo sapiens; ALL, 48 h
SUV39H1 = target: T2, SUV39H1 (Homo sapiens, UniProt O43463); test: Epigenetics selectivity panel (BPS Bioscience); type: biochemical
T2 construct: purchased DiscoverX KINOMEscan (kinases); BPS Bioscience (epigenetic targets)

GLP = target: T3, GLP (Homo sapiens, UniProt Q9H9B1); test: Epigenetics selectivity panel (BPS Bioscience); type: biochemical; settings: for IC50: chemiluminescence assay carried out at BPS
T3 construct: purchased BPS Bioscience (contract panel)
T3 sequence (Q9H9B1 1-1298): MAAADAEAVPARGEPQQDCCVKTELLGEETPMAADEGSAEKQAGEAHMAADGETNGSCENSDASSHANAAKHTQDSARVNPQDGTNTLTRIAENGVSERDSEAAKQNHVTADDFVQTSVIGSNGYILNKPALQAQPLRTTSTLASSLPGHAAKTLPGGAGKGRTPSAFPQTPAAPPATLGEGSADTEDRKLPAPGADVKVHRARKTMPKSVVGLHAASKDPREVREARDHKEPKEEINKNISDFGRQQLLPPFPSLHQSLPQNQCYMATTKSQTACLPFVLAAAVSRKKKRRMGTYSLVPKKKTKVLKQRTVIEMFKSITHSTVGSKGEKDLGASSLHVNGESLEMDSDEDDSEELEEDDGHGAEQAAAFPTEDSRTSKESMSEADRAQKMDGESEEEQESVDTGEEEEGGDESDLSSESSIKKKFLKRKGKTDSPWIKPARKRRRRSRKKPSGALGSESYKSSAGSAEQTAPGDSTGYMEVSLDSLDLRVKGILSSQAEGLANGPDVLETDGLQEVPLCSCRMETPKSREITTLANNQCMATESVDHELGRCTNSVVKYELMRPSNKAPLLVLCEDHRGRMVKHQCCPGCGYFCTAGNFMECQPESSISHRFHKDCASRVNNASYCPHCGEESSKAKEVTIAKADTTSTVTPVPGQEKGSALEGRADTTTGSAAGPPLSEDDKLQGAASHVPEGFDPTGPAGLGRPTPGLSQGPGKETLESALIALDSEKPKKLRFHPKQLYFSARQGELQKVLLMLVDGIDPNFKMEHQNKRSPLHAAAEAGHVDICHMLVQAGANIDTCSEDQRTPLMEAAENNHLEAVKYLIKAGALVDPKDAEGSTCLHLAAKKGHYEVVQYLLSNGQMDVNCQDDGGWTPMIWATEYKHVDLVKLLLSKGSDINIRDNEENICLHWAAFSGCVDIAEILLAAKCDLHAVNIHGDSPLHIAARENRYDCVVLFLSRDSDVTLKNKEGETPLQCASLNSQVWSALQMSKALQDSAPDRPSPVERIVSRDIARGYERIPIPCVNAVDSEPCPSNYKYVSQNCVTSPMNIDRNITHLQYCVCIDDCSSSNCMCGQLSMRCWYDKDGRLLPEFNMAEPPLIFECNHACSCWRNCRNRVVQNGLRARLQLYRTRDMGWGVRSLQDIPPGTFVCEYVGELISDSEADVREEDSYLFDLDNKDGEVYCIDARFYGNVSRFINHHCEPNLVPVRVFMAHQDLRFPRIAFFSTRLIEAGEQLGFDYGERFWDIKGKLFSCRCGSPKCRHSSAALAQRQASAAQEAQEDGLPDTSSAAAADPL

BRD4(BD1+BD2) = target: T4, BRD4(BD1+BD2) (Homo sapiens, UniProt O60885); test: Epigenetics selectivity panel (BPS Bioscience); type: binding
T4 construct: BRD2(BD1+BD2), BRD4(BD1+BD2), BRDT(BD1); purchased BPS Bioscience (contract panel)

MLL-WARD = target: T5, MLL-WARD (Homo sapiens, UniProt Q03164); test: Epigenetics selectivity panel (BPS Bioscience); type: biochemical
T5 construct: purchased DiscoverX KINOMEscan (kinases); BPS Bioscience (epigenetic targets)

LSD1 = target: T6, LSD1 (Homo sapiens, UniProt O60341); test: Epigenetics selectivity panel (BPS Bioscience); type: biochemical
T6 construct: purchased DiscoverX KINOMEscan (kinases); BPS Bioscience (epigenetic targets)

RPMI 8226 = test: Cell proliferation assay (MTS); type: cell-based; settings: Homo sapiens, MM
NOMO-1 = test: Cell proliferation assay (MTS); type: cell-based; settings: Homo sapiens, AML, 48 h
Jarid1C = target: T7, Jarid1C (Homo sapiens, UniProt P41229); test: Epigenetics selectivity panel (BPS Bioscience); type: biochemical
T7 construct: purchased DiscoverX KINOMEscan (kinases); BPS Bioscience (epigenetic targets)

HELA = test: Cell proliferation assay (MTS); type: cell-based; settings: Homo sapiens, Cervical
H187 = test: Cell proliferation assay (MTS); type: cell-based; settings: Homo sapiens, NCI-H187; SCLC
in vivo = test: in vivo; set-up: species or system mice; settings: mouse, iv
ATAD2B = target: T8, ATAD2B (Homo sapiens, UniProt Q9ULI0); test: Epigenetics selectivity panel (BPS Bioscience); type: binding
T8 construct: purchased DiscoverX KINOMEscan (kinases); BPS Bioscience (epigenetic targets)

T7 sequence (P41229 whole entry): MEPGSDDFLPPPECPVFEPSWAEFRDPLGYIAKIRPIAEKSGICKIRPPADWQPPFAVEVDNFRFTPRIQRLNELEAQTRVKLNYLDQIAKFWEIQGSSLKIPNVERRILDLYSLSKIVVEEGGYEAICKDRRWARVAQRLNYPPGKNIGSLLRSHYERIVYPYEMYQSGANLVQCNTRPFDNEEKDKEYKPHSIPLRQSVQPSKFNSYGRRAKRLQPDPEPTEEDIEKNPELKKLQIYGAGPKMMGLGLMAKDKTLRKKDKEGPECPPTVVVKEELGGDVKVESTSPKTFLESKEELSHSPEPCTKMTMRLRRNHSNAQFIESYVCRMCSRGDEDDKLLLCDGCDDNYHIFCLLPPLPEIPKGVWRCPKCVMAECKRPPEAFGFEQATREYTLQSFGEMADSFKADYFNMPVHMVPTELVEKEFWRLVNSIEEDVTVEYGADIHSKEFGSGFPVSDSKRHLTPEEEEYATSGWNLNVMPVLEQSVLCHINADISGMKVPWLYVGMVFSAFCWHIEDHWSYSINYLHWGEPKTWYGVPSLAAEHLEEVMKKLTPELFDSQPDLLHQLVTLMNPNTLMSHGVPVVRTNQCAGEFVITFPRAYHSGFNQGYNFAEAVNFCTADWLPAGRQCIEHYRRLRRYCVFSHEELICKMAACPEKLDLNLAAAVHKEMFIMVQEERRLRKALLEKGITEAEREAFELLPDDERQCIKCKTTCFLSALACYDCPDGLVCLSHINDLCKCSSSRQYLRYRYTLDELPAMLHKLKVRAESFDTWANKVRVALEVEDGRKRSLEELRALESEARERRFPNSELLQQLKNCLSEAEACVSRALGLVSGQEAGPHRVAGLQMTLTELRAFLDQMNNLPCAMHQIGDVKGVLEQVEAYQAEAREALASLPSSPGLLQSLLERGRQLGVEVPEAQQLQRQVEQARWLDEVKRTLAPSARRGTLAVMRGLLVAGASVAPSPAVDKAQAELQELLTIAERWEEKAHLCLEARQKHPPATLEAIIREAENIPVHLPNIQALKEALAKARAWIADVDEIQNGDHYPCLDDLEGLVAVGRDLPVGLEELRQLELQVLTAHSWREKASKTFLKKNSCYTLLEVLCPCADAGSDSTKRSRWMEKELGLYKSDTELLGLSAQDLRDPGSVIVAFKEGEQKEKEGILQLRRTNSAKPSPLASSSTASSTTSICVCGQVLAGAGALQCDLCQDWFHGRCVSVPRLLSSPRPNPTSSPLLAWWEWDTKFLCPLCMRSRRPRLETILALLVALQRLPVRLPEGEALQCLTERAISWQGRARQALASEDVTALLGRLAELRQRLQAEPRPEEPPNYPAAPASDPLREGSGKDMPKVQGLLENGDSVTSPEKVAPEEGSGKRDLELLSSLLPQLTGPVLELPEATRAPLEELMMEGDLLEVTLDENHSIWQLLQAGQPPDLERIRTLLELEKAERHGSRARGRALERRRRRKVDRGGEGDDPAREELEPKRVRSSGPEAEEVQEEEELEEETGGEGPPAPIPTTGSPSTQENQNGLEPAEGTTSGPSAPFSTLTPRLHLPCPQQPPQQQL
T1 sequence (Q9UIF8 whole entry): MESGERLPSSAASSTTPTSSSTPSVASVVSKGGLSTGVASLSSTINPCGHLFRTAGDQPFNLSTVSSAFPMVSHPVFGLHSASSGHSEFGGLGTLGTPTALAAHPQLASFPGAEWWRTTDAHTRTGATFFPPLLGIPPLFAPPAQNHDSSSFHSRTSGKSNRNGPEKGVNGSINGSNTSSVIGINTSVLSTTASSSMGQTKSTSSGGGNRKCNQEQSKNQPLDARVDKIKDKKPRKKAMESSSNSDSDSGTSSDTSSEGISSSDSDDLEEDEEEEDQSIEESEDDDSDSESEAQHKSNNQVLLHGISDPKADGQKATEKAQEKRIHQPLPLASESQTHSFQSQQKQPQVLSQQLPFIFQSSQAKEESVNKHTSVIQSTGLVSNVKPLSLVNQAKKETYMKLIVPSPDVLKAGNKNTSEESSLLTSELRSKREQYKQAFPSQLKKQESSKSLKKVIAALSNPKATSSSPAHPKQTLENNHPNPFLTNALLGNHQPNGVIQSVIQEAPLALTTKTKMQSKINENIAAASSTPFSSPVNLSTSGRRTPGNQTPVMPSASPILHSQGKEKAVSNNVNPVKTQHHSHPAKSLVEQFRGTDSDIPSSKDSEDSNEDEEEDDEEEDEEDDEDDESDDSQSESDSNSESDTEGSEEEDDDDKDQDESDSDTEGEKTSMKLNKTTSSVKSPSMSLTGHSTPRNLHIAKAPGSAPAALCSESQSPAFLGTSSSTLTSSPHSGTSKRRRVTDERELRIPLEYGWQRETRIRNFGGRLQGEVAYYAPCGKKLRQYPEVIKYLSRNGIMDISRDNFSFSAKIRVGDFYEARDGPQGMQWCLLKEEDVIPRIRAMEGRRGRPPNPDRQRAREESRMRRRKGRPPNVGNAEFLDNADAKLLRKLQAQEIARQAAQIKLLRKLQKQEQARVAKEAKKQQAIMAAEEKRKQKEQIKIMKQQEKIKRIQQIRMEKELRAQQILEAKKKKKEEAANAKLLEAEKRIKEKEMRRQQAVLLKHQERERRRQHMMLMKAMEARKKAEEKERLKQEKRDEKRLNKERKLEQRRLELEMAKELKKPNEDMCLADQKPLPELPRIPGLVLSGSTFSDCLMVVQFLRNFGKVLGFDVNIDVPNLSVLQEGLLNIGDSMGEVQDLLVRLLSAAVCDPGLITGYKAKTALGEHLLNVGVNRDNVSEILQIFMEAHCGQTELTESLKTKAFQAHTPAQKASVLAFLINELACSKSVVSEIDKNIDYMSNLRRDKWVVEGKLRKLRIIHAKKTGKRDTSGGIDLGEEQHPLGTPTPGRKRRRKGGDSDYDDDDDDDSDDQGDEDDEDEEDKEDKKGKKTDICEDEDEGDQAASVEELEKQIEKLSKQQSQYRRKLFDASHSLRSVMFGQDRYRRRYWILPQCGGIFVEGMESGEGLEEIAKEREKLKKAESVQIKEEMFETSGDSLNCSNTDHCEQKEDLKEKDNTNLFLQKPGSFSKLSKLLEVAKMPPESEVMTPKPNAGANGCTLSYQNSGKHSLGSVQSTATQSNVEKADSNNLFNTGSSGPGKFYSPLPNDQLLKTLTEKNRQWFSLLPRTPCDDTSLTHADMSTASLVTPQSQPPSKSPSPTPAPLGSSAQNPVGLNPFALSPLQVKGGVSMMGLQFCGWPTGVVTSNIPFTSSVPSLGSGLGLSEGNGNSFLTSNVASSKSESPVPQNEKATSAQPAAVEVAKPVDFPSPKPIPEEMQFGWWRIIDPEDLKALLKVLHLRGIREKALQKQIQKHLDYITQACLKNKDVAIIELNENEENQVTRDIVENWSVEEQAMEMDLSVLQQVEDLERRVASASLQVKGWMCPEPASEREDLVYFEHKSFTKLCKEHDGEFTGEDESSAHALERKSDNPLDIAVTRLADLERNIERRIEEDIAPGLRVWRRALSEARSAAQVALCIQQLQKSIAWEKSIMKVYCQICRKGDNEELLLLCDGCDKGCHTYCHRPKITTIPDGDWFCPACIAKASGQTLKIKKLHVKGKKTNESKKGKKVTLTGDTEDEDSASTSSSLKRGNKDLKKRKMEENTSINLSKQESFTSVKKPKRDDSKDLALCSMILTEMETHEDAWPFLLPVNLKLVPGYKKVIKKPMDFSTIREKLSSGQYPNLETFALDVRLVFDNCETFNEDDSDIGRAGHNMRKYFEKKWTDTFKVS
T2 sequence (O43463 whole entry): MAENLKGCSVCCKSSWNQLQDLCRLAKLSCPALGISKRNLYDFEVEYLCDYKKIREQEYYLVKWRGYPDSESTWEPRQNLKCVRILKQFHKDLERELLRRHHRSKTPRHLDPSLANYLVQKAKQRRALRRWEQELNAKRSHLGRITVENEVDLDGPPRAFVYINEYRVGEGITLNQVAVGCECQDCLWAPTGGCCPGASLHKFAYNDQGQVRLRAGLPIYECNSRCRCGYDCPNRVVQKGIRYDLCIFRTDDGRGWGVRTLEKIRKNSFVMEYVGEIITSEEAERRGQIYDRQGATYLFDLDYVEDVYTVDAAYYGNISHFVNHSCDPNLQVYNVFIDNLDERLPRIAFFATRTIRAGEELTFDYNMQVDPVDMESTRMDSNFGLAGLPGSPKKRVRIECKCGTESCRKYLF

Structure (SMILES)	inhibition at 10 µM (BAZ2B)	GI50 (KASUMI-1)	GI50 (MY)	inhibition at 10 µM (SUV39H1)	IC50 (GLP)	inhibition at 10 µM (BRD4(BD1+BD2))	inhibition at 10 µM (MLL-WARD)	inhibition at 10 µM (LSD1)	GI50 (RPMI 8226)	GI50 (NOMO-1)	inhibition at 10 µM (Jarid1C)	GI50 (HELA)	GI50 (H187)	inhibition at 10 µM (ATAD2B)	also measured
COc1cc2c(NC3CCN(C)CC3)cc(-c3ccc(C)o3)nc2cc1OCCCN1CCCC1 [CM-272, 6-methoxy-2-(5-methyl-2-furyl)-N-(1-methyl-4-piperidyl)-7-(3-pyrrolidin-1-ylpropoxy)quinolin-4-amine]	0%	7.14 µM	816 nM	1%	2 nM	56%	4%	0%	2 µM	3.56 µM	1%	689 nM	1640 nM	0%	% Inhibition at 10 μM: GLP (GLP; 10 µM): 100% and 75%; IC50 (BRD4(BD1+BD2); BPS): 1500 nM; clearance (in vivo; […]): 15.2 mL/min/kg; half-life (in vivo; […]): 1450 min
COc1cc2c(NCC3CCN(C)CC3)cc(-c3ccc(C)o3)nc2cc1OCCCN1CCCC1 [CM-579, 6-methoxy-2-(5-methyl-2-furyl)-N-[(1-methyl-4-piperidyl)methyl]-7-(3-pyrrolidin-1-ylpropoxy)quinolin-4-amine]	0%	5.21 µM	3950 nM	2%	> 10000 nM	0%	2%	24%	5.42 µM	> 10 µM	13%	109 nM	1970 nM	0%	AUC(0-t) (in vivo; 1 mg/kg): 0.268 µM·h; Cmax (in vivo; 1 mg/kg): 191 nM; clearance (in vivo; 1 mg/kg): 95 mL/min/kg; half-life (in vivo; 1 mg/kg): 376 min
